Literature values in patent publication US20250228808A1, “COMPOSITIONS AND METHODS FOR THE TREATMENT OF CORONAVIRUS DISEASES” (priority 2022, published 2025).

Key:
[1] = entry into the cell
[2] = Lu S C 2000
[3] = Sansone 2011

SMILES | membrane permeability [1] | half-life in the blood [2] | fraction of dose excreted by the kidneys [3]
N[C@@H](CCC(=O)N[C@@H](CS)C(=O)NCC(=O)O)C(=O)O [GSH, glutathione] | membrane-impermeable | seconds to minutes | 
CC(=O)N[C@@H](CS)C(=O)O [NAC, N-acetyl cysteine] |  |  | one-third
